Laboratory results from ChEMBL document CHEMBL3871304, “Novel benzothiazine-piperazine derivatives by peptide-coupling as potential anti-proliferative agents” (2017).

Assays:
Format in all cases: functional
[1] = Growth inhibition of human MDA-MB-231 cells after 48 hrs by SRB assay; details: MDA-MB-231, 48 h
[2] = Growth inhibition of human MiaPaCa cells after 48 hrs by SRB assay; details: MIA PaCa-2, 48 h
[3] = Growth inhibition of human HeLa cells after 48 hrs by SRB assay
[4] = Growth inhibition of human IMR32 cells after 48 hrs by SRB assay; details: IMR-32, 48 h

Compound	GI50 [1] [µM]	GI50 [2] [µM]	GI50 ([3]; read-out: GI50) [µM]	GI50 ([3]; read-out: pGI50 (converted)) [µM]	GI50 [4] [µM]
O=C(CCN1C(=O)CSc2ccccc21)NCCCN1CCN(c2ccc(C(F)(F)F)cc2)CC1	20.4	> 100	5.7	5.75	1.4
O=C(CCN1C(=O)CSc2ccccc21)N1CCC(Cc2ccccc2)CC1	3.8	56.8	17.7	17.8	0.1
O=C(CCN1C(=O)CSc2ccccc21)N1CCN(c2ccccc2)CC1	5.4	> 100	41.9	41.7	< 0.01
O=C(CCN1C(=O)CSc2ccccc21)N1CCSCC1	6	> 100	18.5	18.6	21.7
O=C(CCN1C(=O)CSc2ccccc21)N1CCN(c2ccc([N+](=O)[O-])cc2)CC1	5.6	68.1	8.4	8.32	0.34
O=C(CCN1C(=O)CSc2ccccc21)N1CCN(c2ccc(C(F)(F)F)cc2)CC1	1	> 100	4.2	4.17	46.4
O=C(CCN1C(=O)CSc2ccccc21)NCCCN1CCSCC1	0.63	83.3	0.12	0.12	0.82
O=C(CCN1C(=O)CSc2ccccc21)NCCCN1CCN(c2ccc([N+](=O)[O-])cc2)CC1	> 100	> 100	> 100	100	0.46
O=C(CCN1C(=O)CSc2ccccc21)NCCCN1CCN(c2ccccc2)CC1	< 0.01	> 100	2.17	2.19	> 100
COc1ccccc1N1CCN(CCCNC(=O)CCN2C(=O)CSc3ccccc32)CC1	2	59.2	0.97	0.977	> 100
CC(C)(C)OC(=O)N1CCN(C(=O)CCN2C(=O)CSc3ccccc32)CC1	> 100	51.5	> 100	100	> 100
O=C(CCN1C(=O)CSc2ccccc21)NCCCN1CCC(Cc2ccccc2)CC1	27.6	> 100	56.2	56.2	1.5
COc1ccccc1N1CCN(C(=O)CCN2C(=O)CSc3ccccc32)CC1	6.6	34.9	11.9	12	> 100
O=C(CCN1C(=O)CSc2ccccc21)NCCCN1CCN(c2ccccc2F)CC1	4.6	> 100	1.4	1.41	1.4
CC(=O)O[C@H]1C(=O)[C@@]2(C)[C@H]([C@H](OC(=O)c3ccccc3)[C@]3(O)C[C@H](OC(=O)[C@H](O)[C@@H](NC(=O)c4ccccc4)c4ccccc4)C(C)=C1C3(C)C)[C@]1(OC(C)=O)CO[C@@H]1C[C@@H]2O [PACLITAXEL]	0.092	0.06	0.039	0.0389	0.086
COc1cccc2c1C(=O)c1c(O)c3c(c(O)c1C2=O)C[C@@](O)(C(=O)CO)C[C@@H]3O[C@H]1C[C@H](N)[C@H](O)[C@H](C)O1 [DOXORUBICIN]	0.073	0.095	0.083	0.0832	0.025
O=C(CCN1C(=O)CSc2ccccc21)N1CCN(c2ccc(F)cc2)CC1	2.2	> 100	5.4	5.37	10
O=C(CCN1C(=O)CSc2ccccc21)N1CCN(c2ccccc2F)CC1	1.6	> 100	61	61.7	> 100
